# Source: US20070010459A1, “Application of asiatic acid and its derivatives to treat pulmonary fibrosis” (priority 2005, published 2007)
# Experiments:
# [1] = background statement, see U.S. Pat. No. 6,417,349; cited from earlier work
# [2] = tested on: pulmonary fibrosis induced by bleomycin in rat; experiment: Asiatic acid in bleomycin-induced pulmonary fibrosis rat model; format: in vivo, SD male rats; conditions: for Lung CT scanning results: after 28 days; for Lung Weight: mean
# From the text: The pulmonary fibrosis animal model was induced by bleomycin in rat according to the methods described by Lazo J S, Hoyt D G, Sebti S M, Pitt B R. in Pharmacol Ther. 1990: 47:347-58. In this article, praquat, bleomycin and amiodrone are three routinely used chemical agent to induce lung fibrosis is rodents, e.g. mice, rat and Chinese hamsters as well as primates, e.g. baboon and cynomolgous monkey etc. there are also reports describing using rabbit or dog as model animal for such study. Different groups were able to generate lung fibrosis in animal models through different administration routes. For example, 3 various pulmonary fibrosis animal models using Co^60 to radiate rat, bleomycin or CCl4 injection into abdominal cavity of mice or rat respectively were generated. […] Specifically, diffusive stromal lung fibrosis model induced by tracheal bleomycin dripping is the most commonly used animal model. The advantage of this method is that the model can be obtained with once bleomycin dripping without repeated venous or abdominal injections, therefore limiting the influences to other organs caused by systematic administrations. It also lowers the experimental cost. The development of pulmonary fibrosis from alveolitis can be observed in 4 weeks, which is very similar to the pulmonary fibrosis pathological development in human being.
# 1. Animal: SD male rats with weight raging between 200-250 g, purchased from SLAC.
# 3. Dosage: Asiatic acid, 3, 9, […], po for 28 days.
# Male SD rats were lay down flat on operating table and anesthetize with 3% Secobarbital. The trachea was exposed after sterilization of cervical part with alcohol. The needle was then inserted into tracheal cartilage interspace. Bleomycin at 5 mg/kg was dipped in. Afterwards, the rats were reared to evenly distribute bleomycin in the lung. The trachea was then sutured. […] The regimen was initiated on the second day. Sham-operated and untreated group received saline. After 28 days of treatment, lung weight, hydroyproline content, pathological section and CT scan were measured or conducted.
# After 28 days on asiatic acid, rats were sacrificed and dissected. The body and lung weight were measured respectively and used to calculate lung weigh coefficient.
# After 28 days on Asiatic acid, hydroxyproline content in lung was measured. The results are as follows:
# After 28 days on asiatic acid, lung CT scans were performed to each group of experimental rats.
# After 28 days on asiatic acid, the rats were sacrificed and dissected. Both lungs were harvested. The specimen were embedded and fixed then subjected to HE staining. The focus of infection were observed under microscope with ⅓, ⅔ and 3/3 Vf*10 to conduct semi-quantative analysis.
# [3] = tested on: primary culture of mice fibroblast; experiment: bFGF-stimulated proliferation of primary fibroblast culture; format: cell-based; conditions: tested at 25, 12.5, 6.25, 3.125 or 1.56 μg
# Method: Using bFGF (0.5 µg/ml), the proliferation of primary culture of mice fibroblast with the presence of asiaticoside or asiatic acid at 25, 12.5, 6.25, 3.125 or 1.56 μg respectively was assessed.
# [4] = Pharmacokinetics, tissue distribution and excretion of asiaticoside; format: in vivo, rats; conditions: rat, in vivo, 100 mg/kg
# Method: Three doses of asiaticoside (10, 33, 100 mg/kg) were gavaged to rats (n=6) and canines (n=4). After dosing, blood was sampled up to 120 or 216 hours in rats and canines respectively. Tissue distribution and excretion studies in rats were carried out with the highest dose.
# The respective asiaticoside and asiatic acid in the same bio-matrix were detected by LC/MS/MS and GC/MS. Because the secondary peak resembled a plasma concentration-time profile in both rat and canine rather than conventional compartment fitting, statistical moment analysis was used in calculating pharmacokinetic parameters. […] In addition to the targeted organ, both asiaticoside and asiatic acid were distributed in some other organs, which could be the sign to expand clinical indications.
# [5] = tested on: rats with pulmonary fibrosis induced by bleomycin; experiment: Pharmacodynamics of asiaticoside in rats with pulmonary fibrosis induced by bleomycin; format: in vivo
# Method: The rats with lung fibrosis were induced by bleomycin through trachea administration and then treated with asiaticoside. […] The study regimen lasted for 28 days. The lung weight coefficient and hydroyproline (HXP) content were measured on day 2 and 8 after the formation of animal model. CT scan, pathology and serum ECM content measurements were conducted on day 14, 21 and 28 days respectively.
# [6] = tested on: radiation pneumonia and subsequent pulmonary fibrosis induced by Cobalt-60 radiation; experiment: Pharmacodynamics of asiaticoside in radiation pneumonia induced by Cobalt-60 radiation; format: in vivo, rats; design: Type IV (collagen content comparison, serum ECM) / Laminin (serum ECM) / Hyaluronic Acid (serum ECM): unit not given here
# Method: Radiation pneumonia and subsequent pulmonary fibrosis in rats was induced by Cobalt-60 radiation. The efficacies were assessed by the lung weight coefficient, HXP content, serum ECM measurement, CT scan and pathological examinations.
# [7] = first experiment, asiatic acid high dose 27 mg/kg po 28 days
# [8] = first experiment, asiatic acid low dose 3 mg/kg po 28 days
# [9] = first experiment, asiatic acid medium dose 9 mg/kg po 28 days
# [10] = second experiment, asiatic acid high dose 27 mg/kg po 28 days
# [11] = second experiment, asiatic acid low dose 3 mg/kg po 28 days
# [12] = second experiment, asiatic acid medium dose 9 mg/kg po 28 days
# [13] = third experiment, asiatic acid high dose 27 mg/kg po 28 days
# [14] = third experiment, asiatic acid low dose 3 mg/kg po 28 days
# [15] = third experiment, asiatic acid medium dose 9 mg/kg po 28 days
# [16] = dexamethasone 0.6 mg/kg daily oral, 28 days
# [17] = first experiment, dexmethasone 0.6 mg/kg po 28 days
# [18] = second experiment, dexmethasone 0.6 mg/kg po 28 days
# [19] = third experiment, dexmethasone 0.6 mg/kg po 28 days
smiles,measurement,setting,value
"C[C@H]1[C@H](C)CC[C@]2(C(=O)O)CC[C@]3(C)C(=CC[C@@H]4[C@@]5(C)C[C@@H](O)[C@H](O)[C@@](C)(CO)[C@@H]5CC[C@]43C)[C@H]12 [Asiatic acid, asiatic acid]",Solubility,[1],insoluble in water
same,CT: therapeutic effect in acute phase of pulmonary fibrosis,[2]; acute phase,didn't display any therapeutic effects
same,Lung CT scanning results,[2]; asiatic acid high dose 27 mg/kg po,"Light glass infiltration, part of lobules consolidates."
same,Lung CT scanning results,[2]; asiatic acid low dose 3 mg/kg po,"Consolidation in lobules, bronchiectasis, honeycomb"
same,Pathology results (HE staining of lungs),"[2]; asiatic acid high, medium and low dose, 28 days, not dose dependent","light fibroplasias in alveoli pulmonis diaphragm, light lymphocyte infiltration and compensatory emphysema"
same,Lung weight coefficient,[2]; [7],0.70
same,Lung Weight,[2]; [7],2.17 g
same,Lung weight coefficient,[2]; [8],0.66
same,Lung Weight,[2]; [8],1.97 g
same,Lung weight coefficient,[2]; [9],0.66
same,Lung Weight,[2]; [9],2.02 g
same,HX content (hydroxyproline content in lung) X ± SD,"[2]; first experiment, high dose 27 mg/kg po * 28",2.39 ± 0.44 mg/g
same,HX content (hydroxyproline content in lung) X ± SD,"[2]; first experiment, low dose 3 mg/kg po * 28",3.43 ± 0.62 mg/g
same,HX content (hydroxyproline content in lung) X ± SD,"[2]; first experiment, medium dose 9 mg/kg po * 28",2.36 ± 0.87 mg/g
same,CT: therapeutic effect in mid to late phase of the disease,[2]; mid to late phase,can significantly relive the extent of fibrosis in lungs
same,Overall effect on lung fibrosis,"[2]; rats receiving bleomycin induction, direct administration",can relieve lung fibrosis
same,Lung weight coefficient,[2]; [10],0.65
same,Lung Weight,[2]; [10],2.26 g
same,Lung weight coefficient,[2]; [11],0.76
same,Lung Weight,[2]; [11],2.34 g
same,Lung weight coefficient,[2]; [12],0.70
same,Lung Weight,[2]; [12],2.21 g
same,HX content (hydroxyproline content in lung) X ± SD,"[2]; second experiment, high dose 27 mg/kg po * 28",2.37 ± 0.41 mg/g
same,HX content (hydroxyproline content in lung) X ± SD,"[2]; second experiment, low dose 3 mg/kg po * 28",3.41 ± 0.60 mg/g
same,HX content (hydroxyproline content in lung) X ± SD,"[2]; second experiment, medium dose 9 mg/kg po * 28",2.36 ± 0.79 mg/g
same,Lung weight coefficient,[2]; [13],0.70
same,Lung Weight,[2]; [13],2.17 g
same,Lung weight coefficient,[2]; [14],0.66
same,Lung Weight,[2]; [14],1.97 g
same,Lung weight coefficient,[2]; [15],0.66
same,Lung Weight,[2]; [15],2.02 g
same,HX content (hydroxyproline content in lung) X ± SD,"[2]; third experiment, high dose 27 mg/kg po * 28",2.30 ± 0.46 mg/g
same,HX content (hydroxyproline content in lung) X ± SD,"[2]; third experiment, low dose 3 mg/kg po * 28",3.42 ± 0.57 mg/g
same,HX content (hydroxyproline content in lung) X ± SD,"[2]; third experiment, medium dose 9 mg/kg po * 28",2.71 ± 0.44 mg/g
same,IC50,"[3]; Mus musculus, Fibroblast, bFGF, read-out: IC50, growth inhibition of fibroblast treated with bFGF",137 µg/mL
same,Inhibitory activity on fibroblast proliferation,[3]; bFGF 0.5 g/ml,growth inhibitory roles to fibroblast treated with bFGF to certain extent
same,Tissue accumulation,[4],no apparent tissue accumulation
"C[C@@H]1C[C@H]2[C@@H]3CCC4=CC(=O)C=C[C@]4(C)[C@@]3(F)[C@@H](O)C[C@]2(C)[C@@]1(O)C(=O)CO [Dexmethasone, Dexamethasone, reference compound]",CT scan findings,[5]; dexamethasone 0.6 mg/kg,ground glass infiltration and fibrotic streaks were found in both lungs
same,ET-1 (cytokine content),[5]; dexamethasone 0.6 mg/kg,257.86 ± 20.81
same,Hyaluronic Acid (serum ECM),[5]; dexamethasone 0.6 mg/kg,232.97 ± 101.24
same,Laminin (serum ECM),[5]; dexamethasone 0.6 mg/kg,48.41 ± 14.12
same,"PIIIP (collagen content comparison, serum ECM)",[5]; dexamethasone 0.6 mg/kg,19.59 ± 6.24
same,Pathology,[5]; dexamethasone 0.6 mg/kg,a light inflammatory reaction caused by lymphocyte was found with inflammatory cell infiltration seen in the alveoli pulmonis
same,TNF-α (cytokine content),[5]; dexamethasone 0.6 mg/kg,6.50 ± 0.73
same,TNF-[…] (cytokine content),[5]; dexamethasone 0.6 mg/kg,0.075 ± 0.010
same,"Type IV (collagen content comparison, serum ECM)",[5]; dexamethasone 0.6 mg/kg,10.71 ± 4.94
same,HXP content,[5]; [16],19.32 ± 4.35 mg/g
same,Lung weight coefficient,[5]; [16],0.72%
same,Lung CT scanning results,[2]; dexmethasone 0.6 mg/kg po,Light hyperplasy in lung striation. Light consolidation
same,HX content (hydroxyproline content in lung) X ± SD,"[2]; first experiment, 0.6 mg/kg po * 28",2.34 ± 9.54 mg/g
same,Lung weight coefficient,[2]; [17],0.72
same,Lung Weight,[2]; [17],1.90 g
same,HX content (hydroxyproline content in lung) X ± SD,"[2]; second experiment, 0.6 mg/kg po * 28",2.41 ± 0.45 mg/g
same,Lung weight coefficient,[2]; [18],0.69
same,Lung Weight,[2]; [18],1.62 g
same,HX content (hydroxyproline content in lung) X ± SD,"[2]; third experiment, 0.6 mg/kg po * 28",2.47 ± 0.45 mg/g
same,Lung weight coefficient,[2]; [19],0.72
same,Lung Weight,[2]; [19],1.90 g
same,CT scan findings,[6]; dexamethasone group,mild ground glass infiltration and fibrotic streaks in the right lung with right base atelectasis
same,HXP content,[6]; dexamethasone treated,36.42 ± 2.74 mg/g
same,Hyaluronic Acid (serum ECM),[6]; dexamethasone treated,195.12 ± 55.89
same,Laminin (serum ECM),[6]; dexamethasone treated,47.91 ± 8.04
same,Lung weight coefficient,[6]; dexamethasone treated,0.42%
same,"PIIIP (collagen content comparison, serum ECM)",[6]; dexamethasone treated,14.51 ± 5.61
same,"Type IV (collagen content comparison, serum ECM)",[6]; dexamethasone treated,12.65 ± 2.87
